From patent publication US20260083851A1 (AVILAR THERAPEUTICS, INC., priority 2022, published 2026) come the findings set out here.

Assay [1] deals with T1, ASGPR (Homo sapiens, UniProt P07306).
T1 construct: biotin (biotinylated)
T1 sequence (P07306 1-291): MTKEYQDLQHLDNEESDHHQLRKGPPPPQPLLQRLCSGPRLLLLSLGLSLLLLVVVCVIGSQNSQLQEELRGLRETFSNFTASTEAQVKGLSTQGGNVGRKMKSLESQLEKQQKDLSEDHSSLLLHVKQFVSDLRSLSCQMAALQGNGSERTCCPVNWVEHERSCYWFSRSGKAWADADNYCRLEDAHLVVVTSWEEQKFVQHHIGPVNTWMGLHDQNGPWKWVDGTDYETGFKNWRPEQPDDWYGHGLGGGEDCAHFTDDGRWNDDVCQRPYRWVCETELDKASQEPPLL
In words: ASGPR SPR binding. To be noted: second table, read-out: ASGPR KD.

The target of assay [2] is IgG. The experiment in a line: IgG SPR binding. As to conditions: second table, read-out: IgG KD. (In SPR one partner is held on a chip, and binding of the other changes the refractive index at the surface.)
The target of assay [3] is T2, ASGPR receptor on HepG2 cells (ternary complex with AF488-labeled antibody) (Homo sapiens, UniProt P07306).
T2 construct: host or cells: HepG2
T2 sequence (P07306 1-291): T1 sequence (P07306 1-291)
T2 sequence (P07307 1-311 partner): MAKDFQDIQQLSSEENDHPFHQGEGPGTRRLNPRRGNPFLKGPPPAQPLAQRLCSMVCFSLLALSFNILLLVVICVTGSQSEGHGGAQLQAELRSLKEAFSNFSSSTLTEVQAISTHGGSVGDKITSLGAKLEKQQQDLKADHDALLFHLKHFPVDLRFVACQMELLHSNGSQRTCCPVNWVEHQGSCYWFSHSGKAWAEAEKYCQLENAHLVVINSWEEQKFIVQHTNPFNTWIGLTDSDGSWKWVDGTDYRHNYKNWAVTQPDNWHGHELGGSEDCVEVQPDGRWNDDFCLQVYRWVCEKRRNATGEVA
The experiment in a line: Ternary complex formation assay (flow cytometry, cell-associated AF488 fluorescence). Format: cell-based. The procedure:
Human IgG (Sigma-Aldrich, 14506) was covalently labeled with Alexa Fluor 488 using the Alexa Fluor™ 488 Protein Labeling Kit (Thermo Fisher, A10235) following the manufacturer's instructions. HepG2 cells (ATCC, HB-8065) were cultured to about 70% confluence and harvested by trypsinization. Single cell suspensions of HepG2 cells were plated in 96 well plates at 1×10^5 cells/well in cell culture media (DMEM supplemented with 10% FBS) and placed at 4° C. For studies using human IgG, cells were incubated with 100 nM AF488-labeled anti-human IgG and serial dilutions of IgG-based degrader for 1 hour at 4° C. For studies using DNP, cells were incubated with 100 nM AF488-labeled polyclonal rabbit anti-dinitrophenyl (DNP) antibodies (ThermoFisher) and serial dilutions of DNP-based degrader for 1 hour at 4° C. After washing once with ice-cold PBS containing 0.1% BSA and 0.1% sodium azide, cells were resuspended in 150 uL PBS+0.1% BSA and cell-associated AF488 fluorescence was measured by flow cytometry using the iQue® Screener PLUS Flow Cytometer (IntelliCyt). […]
(Flow cytometry measures light scatter and fluorescence of single cells or particles in a stream.)

[4] abbreviates: read-out: TCF EC50, 100 nM AF488-labeled antibody, 1 hour at 4° C., the 25th table, class symbols.

The structures appear in SMILES notation. Where two headings read alike, the source gives them in different places. Positions of bridges follow the written chain, without caps; N, C: chain ends. Non-standard residues stand in square brackets, D forms with d. Residues, ends and D or L forms follow the SMILES beside them. ξ: configuration not given here. Pro(4S-NH2) = N[C@@H]1CN[C@H](C(=O)O)C1; ξPro(4-NH2) = NC1CNC(C(=O)O)C1 Some results are limits rather than exact numbers.

The term Kd denotes a measure of binding affinity in units of concentration. Usually EC50 stands for the midpoint of the concentration-response curve. As for `CC(C)CC1NC(=O)C(Cc2cnc[nH]2)NC(=O)C(Cc2c[nH]c3ccccc23)NC(=O)C(C)NC(=O)C2CSSCC(NC(=O)C(Cc3c[nH]c4ccccc34)NC(=O)C(C(C)C)NC(=O)C(CC(C)C)NC(=O)C(CCC(=O)O)NC(=O)CNC1=O)C(=O)NC(C(C)O)C(=O)N1CCCC1C(=O)N1CC(NC(=O)COc3ccc(CC(=O)NCC4OCC(Nc5cncc(C(F)(F)F)n5)C(O)C4O)cc3)CC1C(=O)NC(CC(=O)O)C(=O)N2` (centres unmarked) [compound 37], the Kd in assay [1] and in assay [2] was < 100 nM in each case. Besides, in assay [3] (setting [4]), the EC50 is < 100 nM.

With `CC(C)CC1NC(=O)C(Cc2cnc[nH]2)NC(=O)C(Cc2c[nH]c3ccccc23)NC(=O)C(C)NC(=O)C2CSSCC(NC(=O)C(Cc3c[nH]c4ccccc34)NC(=O)C(C(C)C)NC(=O)C(CC(C)C)NC(=O)C(CCC(=O)O)NC(=O)CNC1=O)C(=O)NC(C(C)O)C(=O)N1CCCC1C(=O)N1CC(NC(=O)CC(=O)NCC3OCC(Nc4cncc(C(F)(F)F)n4)C(O)C3O)CC1C(=O)NC(CC(=O)O)C(=O)N2` (centres unmarked) [compound 38], the Kd in assay [1] and in assay [2] was < 100 nM throughout. Moreover, the EC50 in assay [3] (setting [4]) was < 100 nM.

As for `CC(C)CC1NC(=O)C(Cc2cnc[nH]2)NC(=O)C(Cc2c[nH]c3ccccc23)NC(=O)C(C)NC(=O)C2CSSCC(NC(=O)C(Cc3c[nH]c4ccccc34)NC(=O)C(C(C)C)NC(=O)C(CC(C)C)NC(=O)C(CCC(=O)O)NC(=O)CNC1=O)C(=O)NC(C(C)O)C(=O)N1CCCC1C(=O)N1CC(NC(=O)CCN3CCN(CC(=O)NCC4OCC(Nc5cncc(C(F)(F)F)n5)C(O)C4O)CC3)CC1C(=O)NC(CC(=O)O)C(=O)N2` (centres unmarked) [compound 39], the dissociation constant Kd in assay [1] and in assay [2] was < 100 nM each time. Also, the EC50 in assay [3] (setting [4]) was < 100 nM.

With `CNC(=O)CCC1NC(=O)CNC(=O)C(CC(C)C)NC(=O)C(Cc2cnc[nH]2)NC(=O)C(Cc2c[nH]c3ccccc23)NC(=O)C(C)NC(=O)C2CSSCC(NC(=O)C(Cc3c[nH]c4ccccc34)NC(=O)C(C(C)C)NC(=O)C(CC(C)C)NC1=O)C(=O)NC(C(C)O)C(=O)N1CCCC1C(=O)N1CC(N)CC1C(=O)NC(CC(=O)O)C(=O)N2` (centres unmarked) [compound 64], the dissociation constant Kd in assay [1] was < 100 nM.

For `CC(C)CC1NC(=O)C(Cc2cnc[nH]2)NC(=O)C(Cc2c[nH]c3ccccc23)NC(=O)C(C)NC(=O)C2CSSCC(NC(=O)C(Cc3c[nH]c4ccccc34)NC(=O)C(C(C)C)NC(=O)C(CC(C)C)NC(=O)C(CCC(=O)N(C)C)NC(=O)CNC1=O)C(=O)NC(C(C)O)C(=O)N1CCCC1C(=O)N1CC(N)CC1C(=O)NC(CC(N)=O)C(=O)N2` (centres unmarked) [compound 69] (cyclo(GE(NMe2)LVWCTP[ξPro(4-NH2)]NCAWHL); disulfide 6-11; configuration not given here), the Kd in assay [2] is < 100 nM.

In the case of `CC(C)C[C@@H]1NC(=O)[C@H](C)NC(=O)CNC(=O)[C@H](CC(C)C)NC(=O)[C@H](Cc2cnc[nH]2)NC(=O)[C@H](Cc2c[nH]c3ccccc23)NC(=O)[C@H](C)NC(=O)[C@@H]2CSSC[C@H](NC(=O)[C@H](Cc3c[nH]c4ccccc34)NC(=O)[C@H](C(C)C)NC1=O)C(=O)N[C@@H]([C@@H](C)O)C(=O)N1CCC[C@@H]1C(=O)N1C[C@@H](N)C[C@H]1C(=O)N[C@@H](CC(N)=O)C(=O)N2` [compound 70] (cyclo(ALVWCT[dP][Pro(4S-NH2)]NCAWHLG); disulfide 5-10), in assay [2], the Kd was < 100 nM.

In the case of `C#CCCCC(=O)NC1CC2C(=O)NC(CC(=O)O)C(=O)NC3CSSCC(NC(=O)C(Cc4c[nH]c5ccccc45)NC(=O)C(C(C)C)NC(=O)C(CC(C)C)NC(=O)C(CCC(=O)O)NC(=O)CNC(=O)C(CC(C)C)NC(=O)C(Cc4cnc[nH]4)NC(=O)C(Cc4c[nH]c5ccccc45)NC(=O)C(C)NC3=O)C(=O)NC(C(C)O)C(=O)N3CCCC3C(=O)N2C1` (centres unmarked) [compound 75], the Kd in assay [2] was < 100 nM.

As for `CC(C)CC1NC(=O)C(Cc2cnc[nH]2)NC(=O)C(Cc2c[nH]c3ccccc23)NC(=O)C(C)NC(=O)C2CSSCC(NC(=O)C(Cc3c[nH]c4ccccc34)NC(=O)C(C(C)C)NC(=O)C(CC(C)C)NC(=O)C(CCC(=O)O)NC(=O)CNC1=O)C(=O)NC(C(C)O)C(=O)N1CCCC1C(=O)N1CC(NC(=O)CCCc3cn(CC(=O)NC(COCCC(=O)NCCOCCOCCOCCOCC4OCC(Nc5cncc(C(F)(F)F)n5)C(O)C4O)COCCC(=O)NCCOCCOCCOCCOCC4OCC(Nc5cncc(C(F)(F)F)n5)C(O)C4O)nn3)CC1C(=O)NC(CC(=O)O)C(=O)N2` (centres unmarked) [compound 77], the Kd in assay [2] is < 100 nM. The EC50 in assay [3] (100 nM AF488-labeled antibody, 1 hour at 4° C., the 25th table, class symbols, read-out: TCF EC50) was < 100 nM.

Take `COC1OC(Cn2cc(CCCC(=O)NC3CC4C(=O)NC(CC(=O)O)C(=O)NC5CSSCC(NC(=O)C(Cc6c[nH]c7ccccc67)NC(=O)C(C(C)C)NC(=O)C(CC(C)C)NC(=O)C(CCC(=O)O)NC(=O)CNC(=O)C(CC(C)C)NC(=O)C(Cc6cnc[nH]6)NC(=O)C(Cc6c[nH]c7ccccc67)NC(=O)C(C)NC5=O)C(=O)NC(C(C)O)C(=O)N5CCCC5C(=O)N4C3)nn2)C(O)C(O)C1NC(C)=O` (centres unmarked) [compound 79]: the Kd in assay [1] was > 1000 nM; in assay [2], < 100 nM.

Regarding `CC(C)C[C@@H]1NC(=O)[C@H](Cc2cnc[nH]2)NC(=O)[C@H](Cc2c[nH]c3ccccc23)NC(=O)[C@H](C)NC(=O)[C@@H]2CSSC[C@H](NC(=O)[C@H](Cc3c[nH]c4ccccc34)NC(=O)[C@H](C(C)C)NC(=O)[C@H](CC(C)C)NC(=O)[C@H](CCC(=O)O)NC(=O)CNC1=O)C(=O)N[C@@H]([C@@H](C)O)C(=O)N1CCC[C@@H]1C(=O)N1C[C@H](N)C[C@H]1C(=O)N[C@@H](CC(=O)O)C(=O)N2` [compound 95], the Kd in assay [2] is < 100 nM.

Consider `CC(C)CC1NC(=O)C(Cc2cnc[nH]2)NC(=O)C(Cc2c[nH]c3ccccc23)NC(=O)C(C)NC(=O)C2CSSCC(NC(=O)C(Cc3c[nH]c4ccccc34)NC(=O)C(C(C)C)NC(=O)C(CC(C)C)NC(=O)C(CCC(=O)O)NC(=O)CNC1=O)C(=O)NC(C(C)O)C(=O)N1CCCC1C(=O)N1CC(NC(=O)c3ccc(N4CCC(CN5CCN(CC6OCC(Nc7cncc(C(F)(F)F)n7)C(O)C6O)CC5)CC4)cc3)CC1C(=O)NC(CC(=O)O)C(=O)N2` (centres unmarked) [compound 98], for which, in assay [2], the Kd was < 100 nM. Besides, the EC50 in assay [3] (setting [4]) is < 100 nM.

`CC(C)C[C@@H]1NC(=O)[C@H](Cc2cnc[nH]2)NC(=O)[C@H](Cc2c[nH]c3ccccc23)NC(=O)[C@H](C)NC(=O)[C@@H]2CC/C=C/C[C@H](NC(=O)[C@H](Cc3c[nH]c4ccccc34)NC(=O)[C@H](C(C)C)NC(=O)[C@H](CC(C)C)NC(=O)[C@H](CCC(=O)O)NC(=O)CNC1=O)C(=O)N[C@@H]([C@@H](C)O)C(=O)N1CCC[C@@H]1C(=O)N1CCC[C@H]1C(=O)N[C@@H](CC(=O)O)C(=O)N2` [compound 99]: in assay [2], the Kd is < 100 nM.

As for `CC(C)CC1NC(=O)C(Cc2cnc[nH]2)NC(=O)C(Cc2c[nH]c3ccccc23)NC(=O)C(C)NC(=O)C2CSSCC(NC(=O)C(Cc3c[nH]c4ccccc34)NC(=O)C(C(C)C)NC(=O)C(CC(C)C)NC(=O)C(CCC(=O)O)NC(=O)CNC1=O)C(=O)NC(C(C)O)C(=O)N1CCCC1C(=O)N1CC(NC(=O)CCCc3cn(CC45COC(O4)C(NC(=O)C(F)(F)F)C(O)C5O)nn3)CC1C(=O)NC(CC(=O)O)C(=O)N2` (centres unmarked) [compound 104], the Kd in assay [2] is < 100 nM. The EC50 in assay [3] (read-out: TCF EC50, 100 nM AF488-labeled antibody, 1 hour at 4° C., the 25th table, numeric bounds, nM from footnote) is > 10000 nM.
